From ChEMBL document CHEMBL4428056 (J Med Chem, 2016) come the findings set out here.

The target in one series is T1, Galectin-8 (Homo sapiens, UniProt O00214).
T1 sequence (O00214 whole entry): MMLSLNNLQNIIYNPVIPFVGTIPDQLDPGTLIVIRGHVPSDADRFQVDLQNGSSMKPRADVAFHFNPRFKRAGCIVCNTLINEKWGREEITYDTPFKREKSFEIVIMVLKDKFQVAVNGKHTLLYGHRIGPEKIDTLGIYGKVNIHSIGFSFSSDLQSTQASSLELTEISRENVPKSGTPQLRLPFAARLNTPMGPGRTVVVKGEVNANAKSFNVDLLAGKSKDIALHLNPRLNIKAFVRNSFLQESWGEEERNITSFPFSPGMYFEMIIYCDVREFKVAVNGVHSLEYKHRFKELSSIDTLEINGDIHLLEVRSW
The series is described as follows: Competitive binding affinity to recombinant human galectin-8 N-terminal after 5 mins in presence of fluorescent probe 2-(fluorescein-5-yl-carbonylamino)ethyl beta-D-galactopyranosyl(1-4)-2-acetamido-2-deoxy-beta-D-glucopyranosyl(1-3)-beta-D-galactopyranosyl(1-4)-beta-D-glucopyranoside by fluorescence polarization assay. In general terms: Polarisation of emitted light reports the rotation of a fluorescent probe.

Series [1] is described as follows: Solubility of the compound in DMSO at 100 mM. To be noted: 100000 µM. It is filed as physicochemical.
The next series deals with Galectin-1 (Homo sapiens, UniProt P09382). The experiment in a line: Competitive binding affinity to recombinant human galectin-1 after 5 mins in presence of fluorescent probe 3,3'-dideoxy-3-[4-(fluorescein-5-yl-carbonylaminomethyl)-1H-1,2,3-triazol-1-yl]-3'-(3,5-dimethoxy-benzamido)-1,1'-sulfanediyl-di-beta-D-galactopyranoside by fluorescence polarization assay.
Sequence of Galectin-1 (P09382 whole entry): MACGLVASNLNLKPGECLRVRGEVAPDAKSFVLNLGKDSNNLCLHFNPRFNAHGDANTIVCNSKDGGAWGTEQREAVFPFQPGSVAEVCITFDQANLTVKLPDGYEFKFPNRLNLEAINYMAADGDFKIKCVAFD
For the next series, the target named is T2, Galectin-7 (Mus musculus, UniProt O54974).
T2 sequence (O54974 whole entry): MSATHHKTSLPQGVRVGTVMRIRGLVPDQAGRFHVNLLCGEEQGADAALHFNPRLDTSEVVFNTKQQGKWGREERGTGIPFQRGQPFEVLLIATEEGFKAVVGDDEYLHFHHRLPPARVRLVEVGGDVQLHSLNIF
The series is described as follows: Competitive binding affinity to recombinant mouse galectin-7 after 5 mins in presence of fluorescent probe beta-D-galactopyranosyl(1-4)-2- acetamido-2-deoxy-beta-D-glucopyranosyl(1-3)-beta-D-galactopyranosyl(1-4)-(N1-fluorescein-5-yl-carbonylaminomethylcarbonyl)-beta-D-glucopyranosylamine by fluorescence polarization assay.

In series [2] the target is Galectin-3 (Homo sapiens, UniProt P17931). The series is described as follows: Competitive binding affinity to recombinant human galectin-3 after 5 mins in presence of fluorescent probe by fluorescence polarization assay.
Sequence of Galectin-3 (Homo sapiens, UniProt P17931) (P17931 whole entry): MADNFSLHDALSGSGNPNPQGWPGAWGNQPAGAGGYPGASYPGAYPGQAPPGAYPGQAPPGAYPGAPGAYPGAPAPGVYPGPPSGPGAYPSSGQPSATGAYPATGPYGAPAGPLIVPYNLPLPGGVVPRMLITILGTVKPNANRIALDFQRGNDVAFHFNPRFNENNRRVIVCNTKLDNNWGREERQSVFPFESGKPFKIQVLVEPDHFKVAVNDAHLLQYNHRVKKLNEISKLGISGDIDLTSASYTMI
Series [3] deals with T3, Galectin-9 (Homo sapiens, UniProt O00182). The series is described as follows: Competitive binding affinity to recombinant human galectin-9 N-terminal after 5 mins in presence of fluorescent probe 2-(fluorescein-5-yl-carbonylamino)ethyl-beta-D-galactopyranosyl(1-4)-2-acetamido-2-deoxy-beta-D-glucopyranosyl(1-3)-beta-D-galactopyranosyl(1-4)-beta-D-glucopyranoside by fluorescence polarization assay.
T3 sequence (O00182 whole entry): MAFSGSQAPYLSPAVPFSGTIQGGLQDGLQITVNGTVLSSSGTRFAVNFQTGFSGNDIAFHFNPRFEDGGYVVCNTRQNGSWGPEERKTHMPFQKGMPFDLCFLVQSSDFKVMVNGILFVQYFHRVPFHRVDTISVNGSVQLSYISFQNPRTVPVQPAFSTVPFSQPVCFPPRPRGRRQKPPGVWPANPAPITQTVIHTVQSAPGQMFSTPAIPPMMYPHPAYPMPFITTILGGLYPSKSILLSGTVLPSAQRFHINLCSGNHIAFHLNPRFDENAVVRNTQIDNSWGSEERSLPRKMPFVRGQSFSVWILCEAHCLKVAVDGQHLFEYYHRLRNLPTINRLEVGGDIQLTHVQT

Series [4] deals with T3, Galectin-9. The series is described as follows: Competitive binding affinity to recombinant human galectin-9 C-terminal after 5 mins in presence of fluorescent probe 3,3'-dideoxy-3-[4-(fluorescein-5-yl-carbonylaminomethyl)-1H-1,2,3-triazol-1-yl]-3'-(3,5-dimethoxy-benzamido)-1,1'-sulfanediyl-di-beta-D-galactopyranoside by fluorescence polarization assay.
Series [5] deals with T4, Galectin-4 (Homo sapiens, UniProt P56470).
T4 sequence (P56470 whole entry): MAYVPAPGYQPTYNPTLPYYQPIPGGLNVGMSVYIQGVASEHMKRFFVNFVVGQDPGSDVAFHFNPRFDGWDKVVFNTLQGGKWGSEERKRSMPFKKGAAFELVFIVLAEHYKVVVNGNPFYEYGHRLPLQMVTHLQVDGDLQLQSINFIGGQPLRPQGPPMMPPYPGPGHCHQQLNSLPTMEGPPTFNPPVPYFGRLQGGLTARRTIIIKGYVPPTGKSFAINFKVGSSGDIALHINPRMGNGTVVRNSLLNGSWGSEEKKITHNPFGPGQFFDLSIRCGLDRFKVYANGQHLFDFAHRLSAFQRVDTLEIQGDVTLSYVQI
The series is described as follows: Competitive binding affinity to recombinant human galectin-4 C-terminal after 5 mins in presence of fluorescent probe 2-(fluorescein-5/6-yl-carbonyl)-aminoethyl 2-acetamido-2-deoxy-alpha-D-galactopyranosyl-(1-3)-[alpha-L-fucopyranosyl-(1-2)]-beta-D-galactopyranosyl-(1-4)-beta-D-glucopyranoside by fluorescence polarization assay.

Series [6] deals with T4, Galectin-4. The series is described as follows: Competitive binding affinity to recombinant human galectin-4 N-terminal after 5 mins in presence of fluorescent probe 3,3'-dideoxy-3-[4-(fluorescein-5-yl-carbonylaminomethyl)-1H-1,2,3-triazol-1-yl]-3'-(3,5-dimethoxy-benzamido)-1,1'-sulfanediyl-di-beta-D-galactopyranoside by fluorescence polarization assay.
The test system of series [7] is Mus musculus. The series is described as follows: Effect on inflammatory score in bleomycin-induced C57/Bl6 mouse at 1 to 3.5 mg/kg administered intratracheally as 4 doses every 48 hrs commencing on day 18 of bleomycin induction measured on day 26 post last dose by Masson's trichrome staining based assay. It is filed as functional, organism-based.
Series [8] deals with Mus musculus. The experiment in a line: Effect on inflammatory response in C57/Bl6 mouse assessed as change in bleomycin-induced total protein levels in bronchoalveolar lavage fluid at 0.35 to 3.5 mg/kg administered intratracheally as 4 doses every 48 hrs commencing on day 18 of bleomycin induction measured on day 26 post last dose. Type of series: functional, organism-based.

In series [9] the test system is Mus musculus. The series is described as follows: Anti-fibrotic activity in C57/Bl6 mouse bleomycin-induced lung fibrosis model assessed as reduction in total lung collagen levels at 3.5 mg/kg administered intratracheally as 4 doses every 48 hrs commencing on day 18 of bleomycin induction measured on day 26 post last dose relative to control. Type of series: functional. Details: scale not given: the % may be the effect or the level left.

Series [10] has as its target Galectin-3 (Homo sapiens, UniProt P17931, K176L). The series is described as follows: Competitive binding affinity to recombinant human galectin-3 K176L mutant after 5 mins in presence of fluorescent probe beta-D-galactopyranosyl(1-4)-2-acetamido-2-deoxy-beta-D-glucopyranosyl(1-3)-beta-D-galactopyranosyl(1-4)-(N1-fluorescein-5-yl-carbonylaminomethylcarbonyl)-beta-D-glucopyranosylamine by fluorescence polarization assay.

Series [11] deals with Galectin-3 (Homo sapiens, UniProt P17931, R144S). The series is described as follows: Competitive binding affinity to recombinant human galectin-3 R144S mutant after 5 mins in presence of fluorescent probe 2-(fluorescein-5/6-yl-carbonyl)-aminoethyl 2-acetamido-2-deoxy-alpha-D-galactopyranosyl-(1-3)-[alpha-L-fucopyranosyl-(1-2)]-beta-D-galactopyranosyl-(1-4)-beta-D-glucopyranoside by fluorescence polarization assay.
Sequence of Galectin-3 (Homo sapiens, UniProt P17931, R144S) (P17931 2-250 R144S limits assumed): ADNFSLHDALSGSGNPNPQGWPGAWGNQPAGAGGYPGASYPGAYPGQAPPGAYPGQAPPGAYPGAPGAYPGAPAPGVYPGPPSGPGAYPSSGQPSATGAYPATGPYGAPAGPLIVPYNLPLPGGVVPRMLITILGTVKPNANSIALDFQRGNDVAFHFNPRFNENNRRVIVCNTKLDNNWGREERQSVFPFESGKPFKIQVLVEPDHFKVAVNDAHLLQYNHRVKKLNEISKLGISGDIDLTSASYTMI

Series [12] deals with Galectin-3 (Homo sapiens, UniProt P17931, R186K). The series is described as follows: Competitive binding affinity to recombinant human galectin-3 R186K mutant after 5 mins in presence of fluorescent probe beta-D-galactopyranosyl(1-4)-2-acetamido-2-deoxy-beta-D-glucopyranosyl(1-3)-beta-D-galactopyranosyl(1-4)-(N1-fluorescein-5-yl-carbonylaminomethylcarbonyl)-beta-D-glucopyranosylamine by fluorescence polarization assay.
Sequence of Galectin-3 (Homo sapiens, UniProt P17931, R186K) (P17931 2-250 R186K limits assumed): as the sequence (P17931 2-250 R144S limits assumed) above, with S143R, R185K counted along it

Series [13] addresses Galectin-3 (Homo sapiens, UniProt P17931, R144K). The series is described as follows: Competitive binding affinity to recombinant human galectin-3 R144K mutant after 5 mins in presence of fluorescent probe 2-(fluorescein-5/6-yl-carbonyl)-aminoethyl 2-acetamido-2-deoxy-alpha-D-galactopyranosyl-(1-3)-[alpha-L-fucopyranosyl-(1-2)]-beta-D-galactopyranosyl-(1-4)-beta-D-glucopyranoside by fluorescence polarization assay.

A further series deals with T5, Galectin-2 (Homo sapiens, UniProt P05162).
T5 sequence (P05162 whole entry): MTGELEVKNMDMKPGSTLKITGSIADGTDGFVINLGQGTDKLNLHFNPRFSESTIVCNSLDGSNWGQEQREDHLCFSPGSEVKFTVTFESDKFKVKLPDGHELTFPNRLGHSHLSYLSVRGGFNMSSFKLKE
The experiment in a line: Competitive binding affinity to recombinant human galectin-2 after 5 mins in presence of fluorescent probe ,[…]-3-[4-(fluorescein-5-yl-carbonylaminomethyl)-1H-1,2,3-triazol-1-yl]-3'-(3,5-dimethoxy-benzamido)-1,1'-sulfanediyl-di-beta-D-galactopyranoside by fluorescence polarization assay.

Series [14] relates to Mus musculus. The series is described as follows: Anti-fibrotic activity in C57/Bl6 mouse assessed as reduction in bleomycin-induced galectin-3 levels in serum at 0.35 to 3.5 mg/kg administered intratracheally as 4 doses every 48 hrs commencing on day 18 of bleomycin induction measured on day 26 post last dose by ELISA. Type of series: functional, organism-based.
Series [15] concerns the target Galectin-3 (Homo sapiens, UniProt P17931, R186S). The series is described as follows: Competitive binding affinity to recombinant human galectin-3 R186S mutant after 5 mins in presence of fluorescent probe 2-(fluorescein-5/6-yl-carbonyl)-aminoethyl 2-acetamido-2-deoxy-alpha-D-galactopyranosyl-(1-3)-[alpha-L-fucopyranosyl-(1-2)]-beta-D-galactopyranosyl-(1-4)-beta-D-glucopyranoside by fluorescence polarization assay.

Series [16] concerns Mus musculus. The experiment in a line: Anti-fibrotic activity in C57/Bl6 mouse bleomycin-induced lung fibrosis model assessed as reduction in fibrosis score at 0.35 to 1 mg/kg administered intratracheally as 4 doses every 48 hrs commencing on day 18 of bleomycin induction measured on day 26 post last dose by Masson's trichrome staining based assay relative to control. Type of series: functional, organism-based.

The test system of series [17] is Mus musculus. The experiment in a line: Anti-fibrotic activity in C57/Bl6 mouse bleomycin-induced lung fibrosis model assessed as reduction in fibrosis score at 3.5 mg/kg administered intratracheally as 4 doses every 48 hrs commencing on day 18 of bleomycin induction measured on day 26 post last dose by Masson's trichrome staining based assay relative to control. Type of series: functional, organism-based.

Series [18] relates to Mus musculus. The experiment in a line: Anti-fibrotic activity in C57/Bl6 mouse assessed as reduction in bleomycin-induced galectin-3 levels in bronchoalveolar lavage fluid at 0.35 mg/kg administered intratracheally as 4 doses every 48 hrs commencing on day 18 of bleomycin induction measured on day 26 post last dose by ELISA. Type of series: functional. The arrangement: scale not given: the % may be the effect or the level left. A general note: ELISA stands for enzyme-linked immunosorbent assay.

In series [19] the test system is Mus musculus. The series is described as follows: Anti-fibrotic activity in C57/Bl6 mouse bleomycin-induced lung fibrosis model assessed as reduction in total lung collagen levels at 0.35 to 1 mg/kg administered intratracheally as 4 doses every 48 hrs commencing on day 18 of bleomycin induction measured on day 26 post last dose. Type of series: functional, organism-based.

Series [20] has as its system Mus musculus. The experiment in a line: Anti-fibrotic activity in C57/Bl6 mouse assessed as reduction in bleomycin-induced galectin-3 levels in bronchoalveolar lavage fluid at 3.5 mg/kg administered intratracheally as 4 doses every 48 hrs commencing on day 18 of bleomycin induction measured on day 26 post last dose by ELISA. Type of series: functional. The arrangement: scale not given: the % may be the effect or the level left.

Series [21] has as its system Mus musculus. The series is described as follows: Effect on inflammatory response in C57/Bl6 mouse assessed as change in bleomycin-induced total cell counts in bronchoalveolar lavage fluid at 0.35 to 3.5 mg/kg administered intratracheally as 4 doses every 48 hrs commencing on day 18 of bleomycin induction measured on day 26 post last dose. Type of series: functional, organism-based.

The term pKd denotes the Kd on a negative log10 scale, so that one unit is a factor of ten.

pKd: −log10 of the molar value. Active and inactive are the calls of the source. No cut-off for these calls is given here. Where only a bound is given, the exact number is not on record here.

Sequence of Galectin-3 (Homo sapiens, UniProt P17931, R144K) (P17931 2-250 R144K limits assumed): as the sequence (P17931 2-250 R144S limits assumed) above, with S143K counted along it
Sequence of Galectin-3 (Homo sapiens, UniProt P17931, K176L) (P17931 2-250 K176L limits assumed): as the sequence (P17931 2-250 R144S limits assumed) above, with S143R, K175L counted along it
Sequence of Galectin-3 (Homo sapiens, UniProt P17931, R186S) (P17931 2-250 R186S limits assumed): as the sequence (P17931 2-250 R144S limits assumed) above, with S143R, R185S counted along it

`O=c1oc2ccc(Cl)cc2cc1CO[C@H]1[C@@H](O)[C@@H](CO)O[C@@H](S[C@@H]2O[C@H](CO)[C@H](O)[C@H](OCc3cc4cc(Cl)ccc4oc3=O)[C@H]2O)[C@@H]1O`: the pKd on Galectin-8 is 4.15; on Galectin-1 it was 4.68; at Galectin-7 it was 4.22; at Galectin-3 [2], 5.85; on Galectin-9 [3] it was 3.85. Also, the solubility entry in series [1] is “Soluble”.
With `COc1ccc2cc(CO[C@H]3[C@@H](O)[C@@H](CO)O[C@@H](S[C@@H]4O[C@H](CO)[C@H](O)[C@H](OCc5cc6ccc(OC)cc6oc5=O)[C@H]4O)[C@@H]3O)c(=O)oc2c1`, the pKd was 4.08 on Galectin-8; 4.35 on Galectin-9 [4]; under 3.30 at Galectin-4 [5]; 4.47 at Galectin-7; 3.85 at Galectin-4 [6]; 6.72 on Galectin-3 [2]. Moreover, the pKd at Galectin-9 [3] was 5.08. Further, the solubility entry in [1] is “Soluble”.
For the molecule `O=c1oc2ccccc2cc1CO[C@H]1[C@@H](O)[C@@H](CO)O[C@@H](S[C@@H]2O[C@H](CO)[C@H](O)[C@H](OCc3cc4ccccc4oc3=O)[C@H]2O)[C@@H]1O`, the outcome in the series on Mus musculus [7], with Mus musculus [8], with Mus musculus [16], in the series on Mus musculus [19] and in the series with Mus musculus [21] was inactive. Further, the results for the Activity with Mus musculus [9], in the series on Mus musculus [18] and with Mus musculus [20] were 58%, 49% and 66%, respectively. The solubility result in series [1] was “Soluble”. Further, the pKd on Galectin-3 [10] was 6.57; on Galectin-3 [11], 5.21; on Galectin-3 [12], 3.96; on Galectin-1, 4.80; at Galectin-4 [5], 3.68; on Galectin-3 [13], 5.52. Besides, the pKd at Galectin-2 is 5.16; on Galectin-7, 5.30; at Galectin-3 [15], 4.30; at Galectin-4 [6], 4.39; at Galectin-3 [2], 7.04; at Galectin-9 [3], 5.80. For the same molecule, the result in the series with Mus musculus [14] and in the series on Mus musculus [17] was Active.
Turning to `O=C(N[C@H]1[C@@H](O)[C@@H](CO)O[C@@H](S[C@@H]2O[C@H](CO)[C@H](O)[C@H](NC(=O)c3ccc4ccccc4c3)[C@H]2O)[C@@H]1O)c1ccc2ccccc2c1`, the pKd on Galectin-7 was 5.77; on Galectin-3 [2], 6.80.
